This note sets out measurements from patent US8828987B2, “Pyridine amide derivatives as EP4 receptor antagonists” (Rottapharm Biotech S.R.L., priority 2010, dated 2014).

Data set [1] addresses T1, human EP4 receptor (Homo sapiens, UniProt P35408).
T1 construct: expressed in transfected cells; membrane fraction used
Put plainly: [3H]-Prostaglandin E2 membrane binding assay (human EP4/HEK293 transfectant membranes). To be noted: [3H]-PGE2 1 nM, hEP4/HEK293 membranes; Ki by Cheng-Prusoff; read-out: Binding pKi (converted). Summed up: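 HEK293 membranes stably expressing human EP4 (10 µg protein) incubated with 1 nM [3H]-PGE2 in 10 mM MES-KOH pH 6, 10 mM MgCl2, 1 mM CaCl2, 90 min at room temperature; nonspecific binding with 1 µM PGE2. Filtration, scintillation counting; Ki via Cheng-Prusoff, reported as pKi; compounds tested 1 nM–1 µM.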

Data set [2] is described as follows: Pharmacokinetics in male Han Wistar rats, intravenous and oral. In kind it is in vivo. To be noted: rat; for AUC(0-inf) / AUC(0-t) / clearance / Vd / half-life / Cmax / Tmax / bioavailability: male, Han Wistar, plasma; for clearance: read-out: CLp* (converted); for Vd: read-out: Vss*; for half-life: read-out: t½* (converted); for bioavailability: po. How it is done: Determination of PK of the Invention Compounds
The pharmacokinetics of compounds E10, E16, E34, E38, E51, were studied in male Han Wistar rats. The rats were treated intravenously and orally (n=3 for each dose route) with a compounds formulated as solutions. The rats were fitted with a jugular cannula for serial sampling. A full profile was acquired for each rat. Plasma extracts were quantitatively analyzed using a specific and sensitive LC-MS/MS bioanalytical method. Inter-individual variations between the three rats in each group were limited (CV for pharmacokinetic parameters was below 50%).

Data set [3] has as its target T1, human EP4 receptor. Put plainly: cAMP assay (AlphaScreen) on human EP4 membrane of transfected cells, antagonism of PGE2. In kind it is biochemical. The settings on record: HEK293 hEP4 cell membrane stimulated with PGE2 3 nM; read-out: functional IC50. The procedure, abridged: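 Membranes of HEK293 cells stably expressing human EP4 (1 μg/well) in HBSS/IBMX 0.5 mM/GTP/GDP/ATP buffer, pH 7.4, preincubated 30 min at 22-23 °C with compound plus PGE2 3 nM. cAMP quantified by AlphaScreen competition with biotinylated cAMP after 1 h. IC50 from cAMP standard curve by linear regression.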
Background: cAMP levels reflect the balance of adenylyl cyclase and phosphodiesterase activity.

Setting [4] is: 1 mg/kg, PO, 1.0 mg/kg, read-out: F %.
The mark [5] stands for this setting: 2 mg/kg, PO, 2.0 mg/kg, read-out: F %.

Like-named read-outs stand apart in the source and are kept apart here.

T1 sequence (P35408 whole entry): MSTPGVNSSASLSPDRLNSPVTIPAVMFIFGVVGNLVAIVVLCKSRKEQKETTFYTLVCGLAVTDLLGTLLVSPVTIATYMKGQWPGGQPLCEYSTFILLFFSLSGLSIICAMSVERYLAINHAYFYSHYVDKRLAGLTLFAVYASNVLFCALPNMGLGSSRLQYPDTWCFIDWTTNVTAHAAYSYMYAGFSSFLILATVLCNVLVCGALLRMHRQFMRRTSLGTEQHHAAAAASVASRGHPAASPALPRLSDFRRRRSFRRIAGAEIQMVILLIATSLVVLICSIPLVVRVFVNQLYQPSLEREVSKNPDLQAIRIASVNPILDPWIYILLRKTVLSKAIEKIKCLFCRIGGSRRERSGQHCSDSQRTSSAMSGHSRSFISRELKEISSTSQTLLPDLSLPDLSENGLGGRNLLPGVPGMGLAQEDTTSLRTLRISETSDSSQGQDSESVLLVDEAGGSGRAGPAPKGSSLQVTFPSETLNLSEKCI

One may read the AUC(0-inf) as total exposure, with the tail of the curve extrapolated. The low end stands for less exposure, the high end for more exposure. For orientation: AUC(0-t) means the area under the concentration-time curve up to a stated or last time point. Lower therefore signals low exposure. What is called Cmax is the highest concentration seen after dosing. A word on the Tmax: it is the time at which the peak concentration occurs. As usually defined, the IC50 is the concentration at which inhibition is half-maximal. For `O=C(O)c1ccc(C2(NC(=O)c3cc(C(F)(F)F)cnc3N3CC(Oc4cccc(F)c4)C3)CC2)cc1` [E 38, 4-(1-(2-(3-(3-fluorophenoxy)azetidin-1-yl)-5-(trifluoromethyl)nicotinamido)cyclopropyl)benzoic acid], the Ki in data set [1] was 12.6 nM. For the same molecule, in data set [2] (IV, 1.0 mg/kg), the AUC(0-inf) is 832 ng·h/mL, the AUC(0-t) amounted to 816 ng·h/mL, the clearance was 5.68 mL/min and the Vd was determined as 1.07 L. In addition, in data set [2] (IV, 1.0 mg/kg), the half-life was 5.9 h and the Tlast was 24 h. In addition, in data set [2] (PO, 1.0 mg/kg), the AUC(0-inf) came to 598 ng·h/mL, the AUC(0-t) worked out at 551 ng·h/mL, the Cmax worked out at 374 ng/mL and the Tmax was determined as 0.25 h. In data set [2] (PO, 1.0 mg/kg), the half-life was 2.59 h and the Tlast came out at 6 h. Moreover, the bioavailability in data set [2] (setting [4]) came to 59%. In addition, the IC50 in data set [3] is 19.3 nM.

Consider `Cc1cc(F)ccc1NC1CN(c2ncc(Cl)cc2C(=O)NC2(c3ccc(C(=O)O)cc3)CC2)C1` [E 34, 4-(1-(5-chloro-2-(3-((4-fluoro-2-methylphenyl)amino)azetidin-1-yl)nicotinamido)cyclopropyl)benzoic acid], for which the Ki in data set [1] was 3.16 nM. Further, in data set [2] (IV, 1.0 mg/kg), the AUC(0-inf) turned out to be 302 ng·h/mL, the AUC(0-t) was 300 ng·h/mL, the clearance was 14.4 mL/min and the Vd amounted to 0.227 L. Moreover, in data set [2] (IV, 1.0 mg/kg), the half-life is 0.34 h and the Tlast is 2 h. Also, in data set [2] (PO, 1.0 mg/kg), the AUC(0-inf) was 128 ng·h/mL, the AUC(0-t) worked out at 125 ng·h/mL, the Cmax was 98.1 ng/mL and the Tmax was 0.25 h. Moreover, in data set [2] (PO, 1.0 mg/kg), the half-life was 1.16 h and the Tlast was determined as 6 h. In addition, in data set [2] (setting [4]), the bioavailability is 42%. Further, the IC50 in data set [3] came to 43 nM.

With `O=C(O)c1ccc(C2(NC(=O)c3cc(Cl)cnc3N3CC(Oc4cccc(F)c4)C3)CC2)cc1` [E 16, 4-(1-(5-chloro-2-(3-(3-fluorophenoxy)azetidin-1-yl)nicotinamido)cyclopropyl)benzoic acid], the Ki in data set [1] is 3.16 nM. Moreover, in data set [2] (IV, 2.0 mg/kg), the AUC(0-inf) was 3330 ng·h/mL, the AUC(0-t) amounted to 3290 ng·h/mL, the clearance is 2.67 mL/min and the Vd worked out at 0.394 L. In data set [2] (IV, 2.0 mg/kg), the half-life is 5.62 h and the Tlast came out at 24 h. In data set [2] (PO, 2.0 mg/kg), the AUC(0-inf) stood at 3000 ng·h/mL, the AUC(0-t) turned out to be 2990 ng·h/mL, the Cmax is 1800 ng/mL and the Tmax stood at 0.25 h. Moreover, in data set [2] (PO, 2.0 mg/kg), the half-life was 3.12 h and the Tlast stood at 24 h. For the same molecule, in data set [2] (setting [5]), the bioavailability was found to be 91%. In data set [2] (2 mg/kg, after oral administration, read-out: absolute oral bioavailability F), the bioavailability came out at 90%. Also, the IC50 in data set [3] is 40 nM.

As for `O=C(O)c1ccc(C2(NC(=O)c3cc(Cl)cnc3N3CC(Oc4ccccc4)C3)CC2)cc1` [E 10, 4-(1-(5-chloro-2-(3-phenoxyazetidin-1-yl)nicotinamido)cyclopropyl)benzoic acid], the Ki in data set [1] was 15.8 nM. Moreover, in data set [2] (IV, 2.0 mg/kg), the area under the curve AUC(0-inf) worked out at 3150 ng·h/mL, the AUC(0-t) was found to be 3090 ng·h/mL, the clearance was 2.68 mL/min and the Vd came out at 0.307 L. For the same molecule, in data set [2] (IV, 2.0 mg/kg), the half-life was 3.96 h and the Tlast is 24 h. In data set [2] (PO, 2.0 mg/kg), the AUC(0-inf) was 1820 ng·h/mL, the AUC(0-t) is 1720 ng·h/mL, the peak level (Cmax) was 923 ng/mL and the Tmax is 0.25 h. For the same molecule, in data set [2] (PO, 2.0 mg/kg), the half-life is 4.85 h and the Tlast stood at 24 h. Further, the bioavailability in data set [2] (setting [5]) was 56%. In addition, the IC50 in data set [3] was 46 nM.
